This is an account of results in PMC8494734 (Scientific Reports, 2021).

Series [1] deals with T1, recombinant NirK protein (MRA2164) (Mycobacterium tuberculosis, UniProt A5U4H6).
T1 construct: gene yfiH
In words: biochemical. To be noted: read-out: % inhibition at 5 mM.

Series [2] addresses T1, recombinant NirK protein (MRA2164).
The subject of another series is O=NO. Nature of the series: purified protein. To be noted: pH 7.0; 37.0 °C.

T1 sequence (A5U4H6 entry or part of it): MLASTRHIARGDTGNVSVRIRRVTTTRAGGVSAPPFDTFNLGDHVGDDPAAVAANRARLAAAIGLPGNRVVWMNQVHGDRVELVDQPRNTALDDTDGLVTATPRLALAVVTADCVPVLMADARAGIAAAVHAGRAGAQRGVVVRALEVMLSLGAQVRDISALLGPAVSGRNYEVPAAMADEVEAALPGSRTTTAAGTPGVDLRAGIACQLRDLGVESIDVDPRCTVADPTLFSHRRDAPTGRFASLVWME

In general, inhibition refers to how much of the control response was suppressed. As to `NC(=O)C1=CN([C@@H]2O[C@H](COP(=O)(O)OP(=O)(O)OC[C@H]3O[C@@H](n4cnc5c(N)ncnc54)[C@H](O)[C@@H]3O)[C@@H](O)[C@H]2O)C=CC1` [NADH], the inhibition at 5000 µM in series [1] turned out to be 92.3%.
What is called % inhibition is how much of the control response was suppressed. As to `[N-]=[N+]=[N-]` [azide], the “% inhibition at 5 mM” value in series [2] is given as 95.16%.
Still for that read-out and setting: for `O=[N+]([O-])O` [nitrate] the value was 47.40%.
In general, Km refers to the concentration of substrate that gives half-maximal velocity. Regarding “recombinant NirK protein (MRA2164) (Mycobacterium tuberculosis H37Ra)”, in the series on O=NO, the Km is 17.16 mM.
